Assay results reported in patent US20060019994A1, “I-sulphonlyl piperidine derivatives” (priority 2002, published 2006).

Target: T1, proTNF-α convertase enzyme (TACE) (Homo sapiens, UniProt P78536)
T1 construct: a partially purified, isolated enzyme assay, the enzyme being obtained from the membranes of THP-1; endogenous in cells; host or cells: THP-1 cell membranes, partially purified
Assay: Isolated enzyme assay, proTNF-α convertase (TACE), partially purified enzyme from membranes of THP-1, fluorescent peptide substrate
Assay type: biochemical
Conditions: 26° C. for 4 hours, read-out: concentration causing 50% inhibition of TACE
Description: Recombinant human proMMP13 may be expressed and purified as described by Knauper et al. [V. Knauper et al., (1996) The Biochemical Journal 271:1544-1550 (1996)]. […] Activity is determined by measuring the fluorescence at λex 328 nm and λem 393 nm. Percent inhibition is calculated as follows: % Inhibition is equal to the [Fluorescenceplus inhibitor-Fluorescencebackground] divided by the [Fluorescenceminus inhibitor-Fluorescencebackground].
The ability of the compounds to inhibit proTNF-α convertase enzyme (TACE) may be assessed using a partially purified, isolated enzyme assay, the enzyme being obtained from the membranes of THP-1 as described by K. M. Mohler et al., (1994) Nature 370:218-220. The purified enzyme activity and inhibition thereof is determined by incubating the partially purified enzyme in the presence or absence of test compounds using the substrate 4′,5′-Dimethoxy-fluoresceinyl Ser.Pro.Leu.Ala.Gln.Ala.Val.Arg.Ser.Ser.Ser.Arg.Cys(4-(3-succinimid-1-yl)-fluorescein)-NH2 in assay buffer (50 mM Tris HCl, pH 7.4 containing 0.1% (w/v) Triton X-100 and 2 mM CaCl2), at 26° C. for 4 hours. The amount of inhibition is determined as for MMP13 except λex 485 nm and λem 538 nm were used. […]

T1 sequence (P78536 215-824): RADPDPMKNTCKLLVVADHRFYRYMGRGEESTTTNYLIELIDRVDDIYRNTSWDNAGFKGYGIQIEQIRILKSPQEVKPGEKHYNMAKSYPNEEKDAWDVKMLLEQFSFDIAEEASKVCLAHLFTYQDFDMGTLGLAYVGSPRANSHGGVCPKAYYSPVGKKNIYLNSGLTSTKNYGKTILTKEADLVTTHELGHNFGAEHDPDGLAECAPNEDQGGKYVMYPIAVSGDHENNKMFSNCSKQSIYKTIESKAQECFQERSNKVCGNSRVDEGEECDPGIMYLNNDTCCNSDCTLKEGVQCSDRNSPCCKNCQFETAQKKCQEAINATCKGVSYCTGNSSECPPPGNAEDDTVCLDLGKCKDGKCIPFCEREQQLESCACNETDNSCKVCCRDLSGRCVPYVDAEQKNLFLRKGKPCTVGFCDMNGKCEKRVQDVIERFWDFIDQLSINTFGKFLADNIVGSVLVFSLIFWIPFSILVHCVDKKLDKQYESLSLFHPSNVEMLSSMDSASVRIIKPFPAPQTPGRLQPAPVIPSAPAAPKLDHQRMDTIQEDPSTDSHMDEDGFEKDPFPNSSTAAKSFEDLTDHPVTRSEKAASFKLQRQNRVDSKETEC

With `Cc1cc(COC2CCN(S(=O)(=O)CCC3NC(=O)NC3=O)CC2)c2ccccc2n1` (stereo not shown) [Example 3, 5-[2-({4-[(2-Methylquinolin-4-yl)methoxy]piperidin-1-yl}sulphonyl)ethyl]imidazolidine-2,4-dione] the IC50 was 0.63 µM.
